# Target: GLP-1R (Homo sapiens, UniProt P43220)
# Experiment: GLP-1R Activation - cAMP Assay
# Type: cell-based
# Conditions: each compound run on one of the two cAMP assays (Assay 1 or Assay 2, not specified)
# Method: GLP-1R Activation—cAMP Assay 1
# GLP-1R activation by compounds of the present disclosure were quantified by measuring cAMP increase in CHO cells stably expressing GLP-1R (MultiSpan product #C1267-1a). The cells were harvested and plated in growth medium (DMEM/F-12 (Corning product #10-090-CV) supplemented with 10% FBS (HyClone product #SH30071-03), penicillin/streptomycin (Corning product #30-002CI) and 10 μg/ml puromycin (Gibco product #A11138-03)) at 1,000 cells/well in a 384-well plate (Greiner product #781080). The cells were then incubated overnight at 37° C., 5% CO2. The next day, the medium was removed and the cells were washed with DPBS (Corning product #21-031-CM) before adding the assay medium (HBSS, Corning product #21-023-CV) with 20 mM Hepes (Gibco product #15630-080) and 0.1% BSA (Rockland Immunochemicals product #BSA-1000)). Following the medium change, the cells were incubated for 1 hour at 37° C., 5% CO2. The tested GLP-1 compound was added to the cells in a 10-point dose response followed by a 30 minutes incubation at 37° C., 5% CO2. cAMP concentration increase was then detected using Cisbio's cAMP Gs Dynamic Kit (product #62AM4PEC) according to the manufacturer's protocol. The response was plotted against the log of the agonist concentration and fitted to a sigmoidal equation to determine the EC50.
# [1] = cAMP increase in CHO cells stably expressing GLP-1R
# Sequence of GLP-1R (P43220 24-463): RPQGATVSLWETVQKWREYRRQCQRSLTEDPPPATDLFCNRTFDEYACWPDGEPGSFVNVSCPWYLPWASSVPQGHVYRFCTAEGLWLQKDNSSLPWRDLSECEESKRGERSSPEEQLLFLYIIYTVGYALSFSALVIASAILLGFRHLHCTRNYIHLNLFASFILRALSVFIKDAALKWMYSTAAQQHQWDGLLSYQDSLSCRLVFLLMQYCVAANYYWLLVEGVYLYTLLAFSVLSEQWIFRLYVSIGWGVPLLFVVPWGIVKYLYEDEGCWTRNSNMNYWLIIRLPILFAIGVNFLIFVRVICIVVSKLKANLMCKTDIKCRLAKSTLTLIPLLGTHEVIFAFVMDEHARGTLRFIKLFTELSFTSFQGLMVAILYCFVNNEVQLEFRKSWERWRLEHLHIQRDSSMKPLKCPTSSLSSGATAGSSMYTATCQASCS
SMILES,EC50 [1],EC50 ([…])
"N#Cc1ccc(COc2cccc(-c3cc(F)c(Cc4nc5ccc(C(=O)O)cc5n4C4COC5(COC5)C4)cc3F)n2)c(F)c1 (stereo not shown) [Example 202, 2-(4-(6-((4-cyano-2-fluorobenzyl)oxy)pyridin-2-yl)-2,5-difluorobenzyl)-1-(2,5-dioxaspiro[3.4]octan-7-yl)-1H-benzo[d]imidazole-6-carboxylic acid]",4.01 nM,–
"Cc1cc(Cc2nc3ccc(C(=O)O)cc3n2[C@@H]2COCC2(C)C)c(Cl)cc1-c1ccc(F)c(OCc2ccc(C#N)cc2F)n1 [Example 140, (S)-2-(2-chloro-4-(6-((4-cyano-2-fluorobenzyl)oxy)-5-fluoropyridin-2-yl)-5-methylbenzyl)-1-(4,4-dimethyltetrahydrofuran-3-yl)-1H-benzo[d]imidazole-6-carboxylic Acid]",0.158 nM,–
"CC1(C)COC[C@H]1n1c(Cc2cc(F)c(-c3cccc(OCc4ccc(Cl)cc4C#N)n3)cc2F)nc2ccc(C(=O)O)cc21 [Example 449, (S)-2-(4-(6-((4-chloro-2-cyanobenzyl)oxy)pyridin-2-yl)-2,5-difluorobenzyl)-1-(4,4-dimethyltetrahydrofuran-3-yl)-1H-benzo[d]imidazole-6-carboxylic acid]",0.021 nM,–
CO[C@@H]1CN(S(C)(=O)=O)C[C@H]1n1c(Cc2cc(F)c(-c3cccc(OCc4ccc(C#N)cc4F)n3)cc2F)nc2ccc(C(=O)O)cc21 [Example 88],–,136 nM
"Cc1cc(Cc2nc3ccc(C(=O)O)cc3n2[C@@H]2COCC2(C)C)c(Cl)cc1-c1ccnc(OCc2ccc(C#N)cc2)n1 [Example 301, (S)-2-(2-chloro-4-(2-((4-cyanobenzyl)oxy)pyrimidin-4-yl)-5-methylbenzyl)-1-(4,4-dimethyltetrahydrofuran-3-yl)-1H-benzo[d]imidazole-6-carboxylic acid]",0.714 nM,–
"CC1(C)COC[C@H]1n1c(Cc2cc(F)c(-c3cccc(OCc4ccc(C#N)cc4)n3)cc2F)nc2cc(Cl)c(C(=O)O)cc21 [Example 397, (S)-5-chloro-2-(4-(6-((4-cyanobenzyl)oxy)pyridin-2-yl)-2,5-difluorobenzyl)-1-(4,4-dimethyltetrahydrofuran-3-yl)-1H-benzo[d]imidazole-6-carboxylic Acid]",0.546 nM,–
CC1(C)COC[C@H]1n1c(Cc2ccc(-c3ccc(F)c(OCc4ccc(C#N)cc4F)n3)cc2F)nc2ccc(C(=O)O)cc21 [Example 330],0.011 nM,–
"COCCn1c(Cc2cc(F)c(-c3cc(OC)cc(OCc4ccc(C#N)cc4F)n3)cc2F)nc2ccc(C(=O)O)cc21 [Example 43, 2-(4-(6-((4-cyano-2-fluorobenzyl)oxy)-4-methoxypyridin-2-yl)-2,5-difluorobenzyl)-1-(2-methoxyethyl)-1H-benzo[d]imidazole-6-carboxylic Acid]",20.8 nM,–
"CC(=O)NCc1cc(F)c(COc2cccc(-c3cc(F)c(Cc4nc5ccc(C(=O)O)cc5n4C[C@@H]4CCO4)cc3F)n2)cn1 [Example 147, (S)-2-(4-(6-((6-(acetamidomethyl)-4-fluoropyridin-3-yl)methoxy)pyridin-2-yl)-2,5-difluorobenzyl)-1-(oxetan-2-ylmethyl)-1H-benzo[d]imidazole-6-carboxylic Acid]",0.233 nM,–
"CC1(C)COC[C@H]1n1c(Cc2cc(F)c(-c3cccc(OCc4ccc(Cl)cc4F)n3)cc2F)nc2ccc(C(=O)O)nc21 [Example 437, (S)-2-(4-(6-((4-chloro-2-fluorobenzyl)oxy)pyridin-2-yl)-2,5-difluorobenzyl)-3-(4,4-dimethyltetrahydrofuran-3-yl)-3H-imidazo[4,5-b]pyridine-5-carboxylic acid]",0.644 nM,–
"CC1(C)COC[C@H]1n1c(Cc2cc(F)c(-c3cccc(OCc4cnc(-n5ccnn5)cc4Cl)n3)cc2F)nc2c(F)cc(C(=O)O)cc21 [Example 171, (S)-2-(4-(6-((4-chloro-6-(1H-1,2,3-triazol-1-yl)pyridin-3-yl)methoxy)pyridin-2-yl)-2,5-difluorobenzyl)-1-(4,4-dimethyltetrahydrofuran-3-yl)-4-fluoro-1H-benzo[d]imidazole-6-carboxylic Acid]",0.05 nM,–
"CS(=O)(=O)N1Cc2ccc(COc3cccc(-c4cc(F)c(Cc5nc6c(F)cc(C(=O)O)cc6n5C[C@@H]5CCO5)cc4F)n3)cc2C1 [Example 517, (S)-2-(2,5-difluoro-4-(6-((2-(methylsulfonyl)isoindolin-5-yl)methoxy)pyridin-2-yl)benzyl)-4-fluoro-1-(oxetan-2-ylmethyl)-1H-benzo[d]imidazole-6-carboxylic acid]",0.024 nM,–
"C[C@H]1COC[C@H]1n1c(Cc2cc(F)c(-c3cccc(OCc4ccc(Cl)cc4F)n3)cc2F)nc2ccc(C(=O)O)cc21 [Example 472, 2-(4-(6-((4-chloro-2-fluorobenzyl)oxy)pyridin-2-yl)-2,5-difluorobenzyl)-1-((3S,4R)-4-methyltetrahydrofuran-3-yl)-1H-benzo[d]imidazole-6-carboxylic acid]",0.069 nM,–
"CO[C@@]1(C)COC[C@@H]1n1c(Cc2cc(F)c(-c3cccc(OCc4ccc(C#N)cc4F)n3)cc2F)nc2ccc(C(=O)O)cc21 (single isomer, unassigned) [Example 313]",1.14 nM,–
"CC1(C)COC[C@H]1n1c(Cc2ccc(-c3cccc(OCc4ccc(Cl)cc4)n3)cc2F)nc2ccc(C(=O)O)cc21 [Example 371, (S)-2-(4-(6-((4-chlorobenzyl)oxy)pyridin-2-yl)-2-fluorobenzyl)-1-(4,4-dimethyltetrahydrofuran-3-yl)-1H-benzo[d]imidazole-6-carboxylic acid]",0.127 nM,–
"COc1cc(Cl)ncc1COc1nc(-c2cc(Cl)c(Cc3nc4ccc(C(=O)O)cc4n3[C@@H]3COCC3(C)C)cc2C)ccc1F [Example 323, (S)-2-(2-chloro-4-(6-((6-chloro-4-methoxypyridin-3-yl)methoxy)-5-fluoropyridin-2-yl)-5-methylbenzyl)-1-(4,4-dimethyltetrahydrofuran-3-yl)-1H-benzo[d]imidazole-6-carboxylic acid]",0.734 nM,–
"CO[C@@H]1CN(S(C)(=O)=O)C[C@@H]1n1c(Cc2cc(F)c(-c3cccc(OCc4ccc(C#N)cc4F)n3)cc2F)nc2ccc(C(=O)O)cc21 [Example 89, 2-(4-(6-((4-cyano-2-fluorobenzyl)oxy)pyridin-2-yl)-2,5-difluorobenzyl)-1-((3S,4R)-4-methoxy-1-(methylsulfonyl)pyrrolidin-3-yl)-1H-benzo[d]imidazole-6-carboxylic Acid]",–,15.3 nM
COCCn1c(Cc2ccc(-c3cccc(OCc4ccc(C#N)cc4F)n3)c3c2COC3)nc2ccc(C(=O)O)cc21 [Example 97],21.2 nM,–
"COCCn1c(Cc2cc(F)c(-c3cccc(OCc4ccc(-c5cccnc5)cc4F)n3)cc2F)nc2ccc(C(=O)O)cc21 [Example 103, 2-(2,5-difluoro-4-(6-((2-fluoro-4-(pyridin-3-yl)benzyl)oxy)pyridin-2-yl)benzyl)-1-(2-methoxyethyl)-1H-benzo[d]imidazole-6-carboxylic Acid]",1.23 nM,–
"CC1(C)COC[C@H]1n1c(Cc2cc(F)c(-c3cccc(OCc4ccc(F)c(F)c4F)n3)cc2F)nc2ccc(C(=O)O)cc21 [Example 451, (S)-2-(2,5-difluoro-4-(6-((2,3,4-trifluorobenzyl)oxy)pyridin-2-yl)benzyl)-1-(4,4-dimethyltetrahydrofuran-3-yl)-1H-benzo[d]imidazole-6-carboxylic acid]",0.621 nM,–
"CC1(C)COC[C@@H]1n1c(Cc2ccc(-c3cccc(OCc4ccc(C#N)cc4F)n3)cc2F)nc2ccc(C(=O)O)cc21 (single isomer, unassigned) [Example 379]",0.574 nM,–
"CC1(C)COC[C@H]1n1c(Cc2cc(F)c(-c3cccc(OCc4ccc(C#N)cc4)n3)cc2F)nc2cc(F)c(C(=O)O)cc21 [Example 418, (S)-2-(4-(6-((4-cyanobenzyl)oxy)pyridin-2-yl)-2,5-difluorobenzyl)-1-(4,4-dimethyltetrahydrofuran-3-yl)-5-fluoro-1H-benzo[d]imidazole-6-carboxylic acid]",0.199 nM,–
"Cn1ncc2cc(COc3cccc(-c4cc(F)c(Cc5nc6ccc(C(=O)O)cc6n5C[C@@H]5CCO5)cc4F)n3)ccc21 [Example 526, (S)-2-(2,5-difluoro-4-(6-((1-methyl-1H-indazol-5-yl)methoxy)pyridin-2-yl)benzyl)-1-(oxetan-2-ylmethyl)-1H-benzo[d]imidazole-6-carboxylic acid]",0.509 nM,–
"CC1(C)COC[C@H]1n1c(Cc2cc(F)c(-c3cccc(OCc4ccccc4F)n3)cc2F)nc2ccc(C(=O)O)cc21 [Example 478, (S)-2-(2,5-difluoro-4-(6-((2-fluorobenzyl)oxy)pyridin-2-yl)benzyl)-1-(4,4-dimethyltetrahydrofuran-3-yl)-1H-benzo[d]imidazole-6-carboxylic acid]",0.25 nM,–
"CC1(C)COC[C@H]1n1c(Cc2cc(F)c(-c3cccc(OCc4ccccc4)n3)cc2F)nc2ccc(C(=O)O)cc21 [Example 363, (S)-2-(4-(6-(benzyloxy)pyridin-2-yl)-2,5-difluorobenzyl)-1-(4,4-dimethyltetrahydrofuran-3-yl)-1H-benzo[d]imidazole-6-carboxylic acid]",0.369 nM,–

# Source: patent US12570642B2, “GLP-IR modulating compounds” (Gilead Sciences, Inc., priority 2021, dated 2026)
